This note sets out measurements from ChEMBL document CHEMBL1136447, “Biological investigation and structure-activity relationship studies on azadirone from Azadirachta indica A. Juss” (2003).

Assay [1] relates to DU-145. Description: In vitro cytotoxic activity against prostate (DU145) cell line. Conditions: Homo sapiens. It is filed as functional.
For assay [2], the system named is MCF7. Description: In vitro cytotoxic activity against breast (MCF-7/ADR) cell line. It is filed as functional. The note with it: Homo sapiens.
Assay [3] concerns U-251. Description: In vitro cytotoxic activity against CNS(U251) cell line. Conditions: Homo sapiens. It is filed as functional.
Assay [4] deals with MCF7. Description: In vitro cytotoxic activity against breast (MCF-7/ADR) cell line at a concentration of 10e-5 M. It is filed as functional, Homo sapiens.
Assay [5] has as its system DU-145. Description: In vitro cytotoxic activity against prostate (DU145) cell line at a concentration of 10e-5 M. It counts as functional, Homo sapiens.
Assay [6] has as its system NCI-H522. Description: In vitro cytotoxic activity against lung (H522) cell line at a concentration of 10e-5 M. It counts as functional, Homo sapiens.
Assay [7] concerns SW-620. Description: In vitro cytotoxic activity against colon (SW620) cell line at a concentration of 10e-5 M. It is filed as functional, Homo sapiens.
In assay [8] the test system is M14. Description: In vitro cytotoxic activity against Melanoma (M14) cell line. It counts as functional. The note with it: Homo sapiens.
In assay [9] the test system is NCI-H522. Description: In vitro cytotoxic activity against lung (H522) cell line. Conditions: Homo sapiens.
In assay [10] the test system is SK-OV-3. Kind of assay: In vitro cytotoxic activity against Ovarian (SK-OV3) cell line at a concentration of 10e-5 M. It is filed as functional, Homo sapiens.
In assay [11] the test system is U-251. Description: In vitro cytotoxic activity against CNS(U251) cell line at a concentration of 10e-5 M. It counts as functional, Homo sapiens.
Assay [12] relates to SK-OV-3. Description: In vitro cytotoxic activity against Ovarian (SK-OV3) cell line. It counts as functional. The note with it: Homo sapiens.
The test system of assay [13] is A498. Description: In vitro cytotoxic activity against renal (A498) cell line. It counts as functional. The note with it: Homo sapiens.
Assay [14] deals with SW-620. Kind of assay: In vitro cytotoxic activity against colon (SW620) cell line. It is filed as functional. Conditions: Homo sapiens.
For assay [15], the system named is M14. Kind of assay: In vitro cytotoxic activity against Melanoma (M14) cell line at a concentration of 10e-5 M. It is filed as functional, Homo sapiens.
Assay [16] has as its system A498. Kind of assay: In vitro cytotoxic activity against renal (A498) cell line at a concentration of 10e-5 M. It counts as functional, Homo sapiens.
Assay [17] relates to Mus musculus. Kind of assay: In vivo potential in Swiss Albino Mice using modified hollow fiber assay at the dose of 150 mg/kg by sc administration. It is filed as functional. Conditions: route subcutaneous.
The test system of assay [18] is Mus musculus. Description: In vivo potential in Swiss Albino Mice using modified hollow fiber assay at the dose of 150 mg/kg by ip administration. It counts as functional. Conditions: route intraperitoneal.
Assay [19] concerns Mus musculus. Description: In vivo potential in Swiss Albino Mice using modified hollow fiber assay at the dose of 75 mg/kg as total score. It counts as functional.
The subject of assay [20] is Mus musculus. Kind of assay: In vivo potential in Swiss Albino Mice using modified hollow fiber assay at the dose of 150 mg/kg as total score. It is filed as functional.
Assay [21] deals with Mus musculus. Description: In vivo potential in Swiss Albino Mice using modified hollow fiber assay at the dose of 75 mg/kg by sc administration. It is filed as functional. Conditions: route subcutaneous.
In assay [22] the test system is NCI-H522. Description: In vitro cytotoxicity against H522 (human adenocarcinoma) cell line at a concentration of 10e-5 M.
The test system of assay [23] is Mus musculus. Kind of assay: In vivo potential in Swiss Albino Mice using modified hollow fiber assay at the dose of 75 mg/kg by ip administration. It is filed as functional. The note with it: route intraperitoneal.
In assay [24] the test system is Mus musculus. Description: In vivo potential in Swiss Albino Mice using modified hollow fiber assay at the dose of 50 mg/kg by sc administration. The note with it: route subcutaneous. It counts as functional.
The subject of assay [25] is Mus musculus. Kind of assay: In vivo potential in Swiss Albino Mice using modified hollow fiber assay at the dose of 100 mg/kg by ip administration. It counts as functional. The note with it: route intraperitoneal.
In assay [26] the test system is Mus musculus. Description: In vivo potential in Swiss Albino Mice using modified hollow fiber assay at the dose of 50 mg/kg as total score. It is filed as functional.
In assay [27] the test system is Mus musculus. Kind of assay: In vivo potential in Swiss Albino Mice using modified hollow fiber assay at the dose of 50 mg/kg by ip administration. The note with it: route intraperitoneal. It is filed as functional.
The subject of assay [28] is Mus musculus. Kind of assay: In vivo potential in Swiss Albino Mice using modified hollow fiber assay at the dose of 100 mg/kg as total score. It counts as functional.
In assay [29] the test system is Mus musculus. Kind of assay: In vivo potential in Swiss Albino Mice using modified hollow fiber assay at the dose of 100 mg/kg by sc administration. Conditions: route subcutaneous. It is filed as functional.
Assay [30] concerns NCI-H522. Kind of assay: In vitro cytotoxic activity against lung (H522) cell line at a concentration of 10e-5 M.

Turning to `CC1(C)C(=O)C=C[C@@]2(C)C1CC(=O)[C@@]1(C)C3=CC[C@@H](c4ccoc4)[C@]3(C)CCC12` (stereo partly drawn), the GI50 came out at 6 µM in assay [1]; 3000 nM in assay [2]; 6 µM in [3]; 0.6 µM in assay [8]; 25 µM in assay [9]; 7.5 µM in [12]. Moreover, the GI50 in assay [13] came out at 4 µM; in assay [14] it was 3000 nM. The Growth is 30% in [4]; 7% in assay [5]; 43% in [6]; 3% in [7]; 43% in assay [10]; 27% in [11]. Moreover, the Growth in assay [15] turned out to be 7%; in assay [16], 9%.
For the compound `CC(=O)O[C@H]1C[C@@H](OC(C)=O)C(C)(C)C2C[C@@H](OC(C)=O)[C@@]3(C)C4=CC[C@@H](c5ccoc5)[C@]4(C)CCC3[C@]21C` (stereo partly drawn), the GI50 in assay [1] came to 4 µM; in assay [2] it was 4000 nM; in assay [3], 30 µM; in assay [8], 5 µM; in assay [9], 40 µM; in [12], 9 µM. The GI50 in [13] is 15 µM; in [14], 3000 nM. The Score in [17] was found to be 24; in assay [18] it was 24; in assay [19], 18; in assay [20] it was 48; in [21], 6; in assay [23] it was 12. Further, the Growth was 38% in assay [4]; -19% in assay [5]; -60% in [7]; 42% in [10]; -24% in assay [11]; 8% in assay [22]. The Growth in assay [15] was -22%; in assay [16] it was -5%.
With `CC(=O)O[C@@H]1CC2C(C)(C)/C(=N/OCCN3CCCC3)C=C[C@]2(C)C2CC[C@]3(C)C(=CC[C@H]3c3ccoc3)[C@@]21C` (stereo partly drawn), the GI50 in [1] is 6 µM; in [2] it was 3000 nM; in assay [3], 4 µM; in assay [8] it was 5 µM; in assay [9], 4 µM; in assay [12], 4 µM. Besides, the GI50 came to 4 µM in assay [13] and 3000 nM in assay [14]. The Score amounted to 8 in assay [24]; 24 in assay [25]; 22 in [26]; 14 in assay [27]; 46 in assay [28]; 22 in assay [29]. The Growth in assay [4] is recorded as 22%; in assay [5] it was 32%; in assay [7], -51%; in assay [10] it was -35%; in assay [11] it was -24%; in assay [22], -13.9%. In addition, the Growth is given as 26% in assay [15] and -16% in assay [16].
`CC(=O)O[C@@H]1CC2C(C)(C)C(=O)C=C[C@]2(C)C2CC[C@]3(C)C(=CC[C@H]3c3ccoc3)[C@@]21C` (stereo partly drawn): the GI50 in [1] was 0.05 µM; in assay [2], 60 nM; in assay [3] it was 2.5 µM; in assay [8], 0.08 µM; in assay [9] it was 6 µM; in [12], 5 µM. The GI50 in assay [13] was determined as 2 µM; in [14], 7000 nM. The Score in assay [17] came to 24; in assay [18], 24; in assay [19], 36; in assay [20], 48; in [21], 12; in assay [23] it was 14. Moreover, the Growth is -18% in [4]; 29% in [30]; -6% in assay [5]; 29% in [7]; 30% in [10]; -4% in assay [11]. Also, the Growth is listed as -6% in [15] and 23% in assay [16].
Turning to `CC(C)(C)OC(=O)NCC(=O)O[C@@H]1CC2C(C)(C)C(=O)C=C[C@]2(C)C2CC[C@]3(C)C(=CC[C@H]3c3ccoc3)[C@@]21C` (stereo partly drawn), the GI50 came to 20 µM in assay [1]; 60000 nM in assay [2]; 50 µM in [3]; 20 µM in [8]; 15 µM in assay [9]; 65 µM in [12]. Further, the GI50 in assay [13] stood at 12 µM; in assay [14], 20000 nM. Further, the Growth in assay [4] is reported as 62%; in assay [30] it was 53%; in [5], 63%; in assay [7] it was 67%; in [10] it was 48%; in assay [11], 53%. Besides, the Growth in assay [15] worked out at 58%; in assay [16], 33%.
